The term IC50 denotes the concentration needed to halve the response being measured.

Read-outs that look alike come from different tables or passages of the source.

Here are results for three compounds from patent US6596863B2, “Medical composition containing nitroetheneamine Derivative or salt there of as active constituent” (Ishihara Sangyo Kaisha, Ltd., priority 1998, dated 2003).

Test [1] has as its target T1, human MMP-9 (gelatinase B) (Homo sapiens, UniProt P14780).
T1 construct: endogenous in cells; host or cells: HT1080 human fibrosarcoma cells (ATCC CCL-121), PMA-stimulated; enzyme purified from the culture supernatant
The test is described as follows: Inhibition activity against human MMP-9 (gelatinase B), fluorescent peptide substrate. Type of test: biochemical. The settings on record: compounds of the formula (I). The procedure, abridged:
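MMP-9 purified from PMA-stimulated (10 ng/ml) HT1080 supernatant, or commercial enzyme (0.0125-0.025 unit/ml or 0.2 μg/ml final), incubated with compound and 10 μM final Mca-Pro-Leu-Gly-Leu-Dpa-Ala-Arg-NH2 fluorescent substrate at 37 °C for 3 h in the dark. Precursor enzyme activated with APMA.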

Test [2] has as its target T2, human MMP-7 (Homo sapiens, UniProt P09237).
T2 construct: purchased Kabushiki Kaisha Yagai Chuo Kenkyusho YU-31001
T2 sequence (P09237 95-267): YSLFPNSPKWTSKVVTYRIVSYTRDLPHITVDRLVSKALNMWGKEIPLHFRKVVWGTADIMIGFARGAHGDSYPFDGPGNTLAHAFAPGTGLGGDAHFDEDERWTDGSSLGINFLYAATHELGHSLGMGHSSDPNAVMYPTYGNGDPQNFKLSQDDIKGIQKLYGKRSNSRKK
The test is described as follows: Enzyme inhibition activity against MMP-7 (matrilysin), fluorescent peptide substrate NFF-2. The settings on record: human MMP-7, substrate NFF-2, 37° C. for 2.5 hours. Type of test: biochemical. As for the experimental part: The inhibition activity against human MMP-7 was measured by the same method as the method for MMP-3, by using a MMP-7 solution (0.025 unit/ml; No. YU-31001, manufactured by Kabushiki Kaisha Yagai Chuo Kenkyusho, purity: at least 99.9%) and a fluorescent peptide substrate MOCAc—Arg-Pro-Lys-Pro-Tyr—Ala-Nva-Trp-Met-Lys(Dnp) -NH2 [NFF-2, No. 3167-v, manufactured by Peptide Institute, Inc.]. The enzymatic reaction was carried out at 37° C. for 2.5 hours in a dark place, and the relative fluorescence intensity was measured at a fluorescence wavelength of 400 nm with an excitation wavelength of 327 nm.

Where [3] appears, read: 1st measurement, read-out: MMP-9 inhibition activities IC50, 1st.
The mark [4] stands for this setting: 2nd measurement, read-out: MMP-9 inhibition activities IC50, 2nd.
Setting [5] is: average of 1st and 2nd (or single measurement), read-out: MMP-9 inhibition activities IC50, Average.

T1 sequence (P14780 107-707 limits assumed): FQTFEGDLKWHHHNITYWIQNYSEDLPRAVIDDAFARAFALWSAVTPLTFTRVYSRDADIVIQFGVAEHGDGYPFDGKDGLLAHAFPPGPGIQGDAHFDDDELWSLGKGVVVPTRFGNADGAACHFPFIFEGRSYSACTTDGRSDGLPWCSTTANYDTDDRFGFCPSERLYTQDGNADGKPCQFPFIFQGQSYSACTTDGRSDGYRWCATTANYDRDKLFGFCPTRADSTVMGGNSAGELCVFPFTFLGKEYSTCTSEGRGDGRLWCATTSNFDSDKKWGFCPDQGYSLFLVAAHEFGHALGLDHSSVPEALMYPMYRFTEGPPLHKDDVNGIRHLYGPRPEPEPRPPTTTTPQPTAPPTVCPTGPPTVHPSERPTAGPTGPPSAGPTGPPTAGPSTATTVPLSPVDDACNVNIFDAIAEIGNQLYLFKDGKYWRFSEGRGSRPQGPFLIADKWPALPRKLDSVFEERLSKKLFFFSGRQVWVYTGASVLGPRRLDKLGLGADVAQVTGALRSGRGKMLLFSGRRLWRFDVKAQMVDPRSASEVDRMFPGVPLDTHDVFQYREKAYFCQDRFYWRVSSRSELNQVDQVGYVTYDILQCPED

`CCOCCOc1cc(C(F)(F)F)cc(NNC(=C[N+](=O)[O-])NS(C)(=O)=O)n1` [Compound No. 164, N-(1-(6-(2-ethoxyethoxy)-4-trifluoromethyl-2-pyridyl)hydrazino-2-nitroethenyl)methanesulfonamide]: the 50% inhibitory concentration (IC50) in test [1] (setting [3]) turned out to be 5.4 µM; in test [1] (setting [4]) it was 5.9 µM; in test [1] (setting [5]), 5.7 µM; in test [2], 12 µM.

With `CS(=O)(=O)NC(=C[N+](=O)[O-])NNc1cc(C(F)(F)F)cc(Cl)n1` [Compound No. 157, N-(1-(6-chloro-4-trifluoromethyl-2-pyridyl)hydrazino-2-nitroethenyl)methanesulfonamide], the half-maximal inhibitory concentration (IC50) came to 7.4 µM in test [1] (setting [3]), 5.5 µM in test [1] (setting [4]), 6.5 µM in test [1] (setting [5]) and 16.5 µM in test [2].

On to `CCOCCOc1cc(C(F)(F)F)cc(NNC(=C[N+](=O)[O-])NC)n1` [Compound No. 107], for which the half-inhibitory concentration (IC50) in test [1] (setting [3]) was 8 µM; in test [1] (setting [4]) it was 7.4 µM; in test [1] (setting [5]) it was 7.7 µM; in test [2], 18.7 µM.
